The values below come from paper PMC12369021, “Biased Signaling and Its Role in the Genesis of Short- and Long-Acting β2‑Adrenoceptor Agonists” (Biochemistry, 2025).

Read-outs that look alike come from different tables or passages of the source.

The target in assay [1] is β2AR. The following applies: cited from earlier work.
Assay [2] has as its system β2AR. The following applies: for log bias factor (mGs/Arr2): ΔΔlog(Emax/EC50) relative to reference formoterol, from peak responses. How it is done: To determine the relative effectiveness of the compounds to activate the different signaling pathways, the difference between the log(E max/EC50) values was calculated.
Using the estimates of agonist activity Δlog(E max/EC50) for the test and reference agonists, pathway log bias was calculated as follows: 3 ΔΔlog(Emax/EC50)=Δlog(Emax/EC50)P1−Δlog(Emax/EC50)P2 where pathway 1 (P1) is mGs-dependent recruitment and pathway 2 (P2) is β-arrestin2 recruitment. Bias factors were calculated by taking the antilog of the ΔΔlog(E max/EC50).
Error on the pathway bias was calculated using the following formula: 4 SEMΔΔlog(Emax/EC50)=SEMΔlog(Emax/EC50)P12+SEMΔlog(Emax/EC50)P22

Assay [3] has as its target T1, β2AR (Homo sapiens, UniProt P07550). As to the kind of experiment: nanoBRET mGs protein recruitment assay in T-REx-293-β2AR-nLuc cells. The following applies: for EC50: mean ± SEM. The class given is cell-based. (In general: BRET reads energy transfer from a luciferase to a nearby fluorophore.)
Target sequence in this assay (P07550 whole entry): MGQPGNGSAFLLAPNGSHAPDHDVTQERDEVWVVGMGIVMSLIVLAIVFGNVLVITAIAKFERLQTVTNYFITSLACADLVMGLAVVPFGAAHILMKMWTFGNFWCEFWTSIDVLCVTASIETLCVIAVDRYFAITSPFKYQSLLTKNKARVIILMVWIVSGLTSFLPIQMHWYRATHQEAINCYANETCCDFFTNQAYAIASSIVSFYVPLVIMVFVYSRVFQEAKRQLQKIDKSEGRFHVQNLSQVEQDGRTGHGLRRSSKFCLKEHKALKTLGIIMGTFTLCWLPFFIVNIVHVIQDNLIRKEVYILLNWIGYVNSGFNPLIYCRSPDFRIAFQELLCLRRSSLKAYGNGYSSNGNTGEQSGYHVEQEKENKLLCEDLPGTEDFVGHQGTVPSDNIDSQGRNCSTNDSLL
The target in assay [4] is T1, β2AR. As to the kind of experiment: nanoBRET β-arrestin2 recruitment assay in T-REx-293-β2AR-nLuc cells. The class given is cell-based. The following applies: for EC50: mean ± SEM.
Target sequence in this assay (P07550 whole entry): as above
Target sequence in this assay (P32121 whole entry partner): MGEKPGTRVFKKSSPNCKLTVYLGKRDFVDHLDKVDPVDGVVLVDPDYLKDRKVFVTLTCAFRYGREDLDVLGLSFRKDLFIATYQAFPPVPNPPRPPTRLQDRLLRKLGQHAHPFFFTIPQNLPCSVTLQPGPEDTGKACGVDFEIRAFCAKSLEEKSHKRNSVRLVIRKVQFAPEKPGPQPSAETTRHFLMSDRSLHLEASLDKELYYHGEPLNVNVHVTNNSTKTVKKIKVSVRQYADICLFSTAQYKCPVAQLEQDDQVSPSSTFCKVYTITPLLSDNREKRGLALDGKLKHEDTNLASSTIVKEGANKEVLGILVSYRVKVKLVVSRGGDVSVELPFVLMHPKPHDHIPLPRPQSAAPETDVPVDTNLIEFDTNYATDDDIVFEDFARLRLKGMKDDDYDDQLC
Where [5] appears, read: ΔΔlog(Emax/EC50) relative to formoterol, AUC-derived.
Where [6] appears, read: read-out: mGs Emax at room temperature.
Setting [7] is: read-out: mGs Emax derived from AUC analysis.
Setting [8] is: read-out: β-arrestin2 Emax at room temperature.
Setting [9] is: read-out: β-arrestin2 Emax derived from AUC analysis.

In general, Ki refers to a measure of affinity in units of concentration, obtained from inhibition or displacement. As to `C=CCc1ccccc1OCC(O)CNC(C)C` (stereo not shown) [Alprenolol], the inhibitory constant (Ki) in assay [1] is 0.912 nM.
In the case of `CC(Cc1ccc(O)cc1)NCC(O)c1cc(O)cc(O)c1` (stereo not shown) [Fenoterol, fenoterol], the “Log Bias Factor (mGs/Arr2) from AUC analysis” value in assay [2] (setting [5]) is listed as 0.37 ± 0.05. Moreover, the “log bias factor (mGs/Arr2)” value in assay [2] was determined as 0.32 ± 0.11. The Emax was 77 ± 0.4% in assay [3] (read-out: mGs E max); 73.9 ± 2.1% in assay [3] (setting [6]); 76.7 ± 0.8% in assay [3] (setting [7]); 85 ± 2.5% in assay [4] (read-out: β-arrestin2 E max); 83.8 ± 7.1% in assay [4] (setting [8]); 93.6 ± 8.1% in assay [4] (setting [9]).
On to `COc1ccc(CC(C)NCC(O)c2ccc(O)c(NC=O)c2)cc1` (stereo not shown) [Formoterol], for which, in assay [2], the “log bias factor (mGs/Arr2)” value is listed as 0 ± 0.10.
`CCC(NC(C)C)C(O)c1ccc(O)c(O)c1` (stereo not shown) [Isoetharine]: the Ki in assay [1] was 1580 nM. In assay [2] (setting [5]), the “Log Bias Factor (mGs/Arr2) from AUC analysis” value turned out to be 0.79 ± 0.06. Besides, in assay [2], the “log bias factor (mGs/Arr2)” value is 0.59 ± 0.13. For the same compound, the EC50 was 38 nM in assay [3] (AUC analysis, 37 °C, read-out: mGs pEC50 derived from AUC analysis (converted)); 61.7 nM in assay [3] (peak response at 30 min, 37 °C, read-out: mGs pEC50 (converted)); 13.5 nM in assay [3] (room temperature, 3 observations, read-out: mGs pEC50 at room temperature (converted)); 224 nM in assay [4] (AUC analysis, 37 °C, read-out: β-arrestin2 pEC50 derived from AUC analysis (converted)); 417 nM in assay [4] (peak response, 37 °C, read-out: β-arrestin2 pEC50 (converted)); 209 nM in assay [4] (room temperature, 3 observations, read-out: β-arrestin2 pEC50 at room temperature (converted)). For the same compound, the Emax came out at 97.8 ± 1.4% in assay [3] (read-out: mGs E max); 101 ± 2.8% in assay [3] (setting [6]); 93.9 ± 1.7% in assay [3] (setting [7]); 112 ± 5.9% in assay [4] (read-out: β-arrestin2 E max); 116 ± 1.7% in assay [4] (setting [8]); 103 ± 4.37% in assay [4] (setting [9]).
Consider `CC(C)NCC(O)c1ccc(O)c(O)c1` (stereo not shown) [Isoprenaline, isoprenaline], for which, in assay [2], the “Log Bias Factor (mGs/Arr2) from AUC analysis” value was found to be 0.51 ± 0.07 and the “log bias factor (mGs/Arr2)” value was 0.48 ± 0.14.
As for `CC(C)(C)NCC(O)c1ccc(O)c(CO)c1` (stereo not shown) [Salbutamol], the “Log Bias Factor (mGs/Arr2) from AUC analysis” value in assay [2] (setting [5]) was 1.65 ± 0.06. Besides, the “log bias factor (mGs/Arr2)” value in assay [2] was found to be 1.42 ± 0.19.
In the case of `OCc1cc(C(O)CNCCCCCCOCCCCc2ccccc2)ccc1O` (stereo not shown) [Salmeterol], the “log bias factor (mGs/Arr2)” value in assay [2] is given as 0.53 ± 0.15.
Consider `CC(C)(C)NCC(O)c1ccccc1Cl` (stereo not shown) [Tulobuterol], for which the Emax in assay [3] (read-out: mGs E max) was 33.6 ± 0.6%; in assay [3] (setting [6]), 41.9 ± 1.4%; in assay [3] (setting [7]), 32.8 ± 0.4%; in assay [4] (setting [8]), 8.8 ± 1%.
